According to patent US6221865A, “Inhibitors of protein isoprenyl transferases” (priority 1998, dated 2001):
Structures can show the parent of a compound that is named as a salt. Where two headings read alike, the source gives them in different places. Blank lines part the entries; values can stand above or below the compound they belong to.

Target: T1, protein farnesyltransferase (Rattus norvegicus, UniProt Q02293+Q04631)
T1 construct: The enzyme is purified according to Reiss, Y., et al., Cell, 62: 81-88 (1990), utilizing steps one through three; from tissue; host or cells: rat brain
T1 sequence (Q02293 whole entry, one chain of several): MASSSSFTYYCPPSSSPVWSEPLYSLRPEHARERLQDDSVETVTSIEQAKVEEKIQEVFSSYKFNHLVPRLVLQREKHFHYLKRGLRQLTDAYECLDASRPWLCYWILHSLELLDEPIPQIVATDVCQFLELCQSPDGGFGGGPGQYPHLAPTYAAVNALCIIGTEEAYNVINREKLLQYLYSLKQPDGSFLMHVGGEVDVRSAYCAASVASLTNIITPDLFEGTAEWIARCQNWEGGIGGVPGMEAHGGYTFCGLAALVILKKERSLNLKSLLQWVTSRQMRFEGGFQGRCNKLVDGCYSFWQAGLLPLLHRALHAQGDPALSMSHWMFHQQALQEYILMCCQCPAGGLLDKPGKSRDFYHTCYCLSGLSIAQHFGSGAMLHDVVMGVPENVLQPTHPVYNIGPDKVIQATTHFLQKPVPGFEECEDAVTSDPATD
Assay: Inhibition of farnesyltransferase (scintillation proximity assay, rat brain enzyme, biotin-K Ras B fragment substrate)
Format: biochemical
Settings: for % inhibition of farnesyltransferase at 1 × 10^-5 M: 1 × 10^-5 M (Table 1); for inhibition at 1 µM: read-out: % inhibition of farnesyltransferase at 1 × 10^-6 M; for inhibition at 1 µM / % inhibition of farnesyltransferase at 1 × 10^-6 M: 1 × 10^-6 M (Table 2)
Procedure, shortened: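 Enzyme from rat brain, partly purified (steps one to three), assayed by SPA kit using 0.1 mM final biotin-K Ras B peptide as prenyl acceptor rather than biotin-lamin. Activity given as percent inhibition.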

[1] = read-out: % inhibition at 0.1 μM (*), Table 6, * = 0.1 μM (footnote), title prints 0.1 mM

- % inhibition of farnesyltransferase at 1 × 10^-7 M (1 × 10^-7 M (Table 3)): 97%
SMILES: CSCC[C@H](NC(=O)c1ccc(CNC(Cc2ccccc2)Cc2ccccc2)cc1-c1ccccc1C)C(=O)O [Example 523]

- % inhibition of farnesyltransferase at 1 × 10^-5 M: 69%
SMILES: CSCC[C@H](NC(=O)c1ccc(CNCc2cc(Cl)cc(Cl)c2)cc1-c1ccccc1)C(=O)O [Example 712]

- % inhibition of farnesyltransferase at 1 × 10^-7 M (1 × 10^-7 M (Table 3)): 75%
SMILES: CCSC[C@H](CC1CCCCC1)N(Cc1ccc(C(=O)N[C@@H](CCSC)C(=O)O)c(-c2ccccc2C)c1)C(=O)OC(C)(C)C [Example 948]

- inhibition at 1 µM: 26%
SMILES: CSCC[C@H](NC(=O)c1ccc(CN(C(C)C)C2(CC3CCCCC3)CCC2)cc1-c1ccccc1C)C(=O)O [Example 332]

- % inhibition of farnesyltransferase at 1 × 10^-6 M: 85%
SMILES: CSCC[C@H](NC(=O)c1ccc(NC(=O)OCc2cncs2)cc1-c1ccccc1C)C(=O)O [Example 902]

- inhibition at 0.01 µM (read-out: % inhibition of farnesyltransferase at 1 × 10^-8 M, 1 × 10^-8 M (Table 4)): 69%
SMILES: CSCC[C@H](NC(=O)c1ccc(CN2CCC[C@H]2COc2ccccc2)cc1-c1ccccc1C)C(=O)O [Example 991, N-[4-(2-phenoxymethylpyrrolidin-1-ylmethyl)-2-(2-methylphenyl)benzoyl]methionine]

- % inhibition of farnesyltransferase at 1 × 10^-6 M: 93%
SMILES: CSCC[C@H](NC(=O)c1ccc(COC2CCN(Cc3ccccc3)C2)cc1-c1ccccc1C)C(=O)O (some centres unmarked) [Example 987]

- inhibition at 1 µM: 91%
SMILES: Cc1ccccc1-c1cc(CCc2ccc(Oc3ccccc3)cc2)ccc1C(=O)N[C@@H](CC[S+](C)[O-])C(=O)O (some centres unmarked) [Example 463, N-[4-(2-(4-phenoxyphenyl)ethyl)-2-(2-methylphenyl)benzoyl]-2-amino-4-methylsulfinylbutanoic acid lithium salt]

- inhibition at 0.1 µM [1]: 86%
SMILES: CSCC[C@H](NC(=O)c1ccc(CP(C)(=O)CC2CCCCC2)cc1-c1ccccc1C)C(=O)O (some centres unmarked) [Example 1212, N-[4-((Cylohexylmethyl)methyl(oxophosphinyl)methyl)-2-(2-methylphenyl)benzoyl]methionine]

- % inhibition of farnesyltransferase at 1 × 10^-8 M (1 × 10^-8 M (Table 4)): 69%
SMILES: CSCC[C@H](NC(=O)c1ccc(CN(Cc2cncs2)C2CCSCC2)cc1-c1ccccc1C)C(=O)O [Example 881]

- % inhibition of farnesyltransferase at 1 × 10^-5 M: 48%
SMILES: CSCC[C@H](NC(=O)c1ccc(CNc2ccccc2N(C)C)cc1-c1ccccc1)C(=O)O [Example 672]

- % inhibition of farnesyltransferase at 1 × 10^-6 M: 58%
SMILES: CCOC(=O)c1ccc(NCc2ccc(C(=O)N[C@@H](CCSC)C(=O)O)c(-c3ccccc3)c2)cc1 [Example 646]

SMILES: CSCC[C@H](NC(=O)c1ccc(COC(Cc2ccccc2)c2cncs2)cc1-c1ccccc1C)C(=O)[O-].[Li+] (some centres unmarked) [Example 828]
- % inhibition of farnesyltransferase at 1 × 10^-8 M (1 × 10^-8 M (Table 4)): 87%

- inhibition at 1 µM: 88%
SMILES: CSCC[C@H](NC(=O)c1ccc(CN2CCCC(OCc3ccccc3)C2)cc1-c1ccccc1C)C(=O)O (some centres unmarked) [Example 989, N-[4-(3-benzyloxypiperidin-1-ylmethyl)-2-(2-methylphenyl)benzoyl]methionine]

SMILES: CSCC[C@H](NC(=O)c1ccc(COCc2ccc(-c3cccc(C(F)(F)F)c3)o2)cc1-c1ccccc1C)C(=O)[O-].[Li+] [Example 441]
- % inhibition of farnesyltransferase at 1 × 10^-7 M (1 × 10^-7 M (Table 3)): 91%

- inhibition at 1 µM: 98%
SMILES: Cc1ccccc1-c1cc(CN(C2CC2)C(C)(C)Cc2ccccc2)ccc1C(=O)N[C@@H](CCS(C)(=O)=O)C(=O)O [Example 319]

SMILES: CCOC(=O)N1CCC(NCc2ccc(C(=O)N[C@@H](CCSC)C(=O)[O-])c(-c3ccccc3C)c2)CC1.[Li+] [Example 806]
- % inhibition of farnesyltransferase at 1 × 10^-6 M: 72%

- inhibition at 0.01 µM (read-out: % inhibition at 0.01 μM (**), Table 6, ** = 0.01 μM (footnote), title prints 0.01 mM): 73%
SMILES: CSCC[C@H](NC(=O)c1ccc(C/C(=C\c2cncs2)COc2cc(F)cc(F)c2)cc1-c1ccccc1C)C(=O)O [Example 1163, N-{4-[E-2-(3,5-diflourophenoxy)methyl-3-(thiazol-5-yl)prop-2-enyl]-2-(2-methylphenyl)benzoyl}methionine Lithium Salt]

- inhibition at 1 µM: 98%
SMILES: Cc1ccccc1-c1cc(CN(C(C)C)C(C)(C)CC2CCCCC2)ccc1C(=O)N[C@@H](CCS(C)(=O)=O)C(=O)O [Example 322]

SMILES: CCCCC(OCc1ccc(C(=O)N[C@@H](CCSC)C(=O)[O-])c(-c2ccccc2C)c1)c1ccco1.[Li+] (some centres unmarked) [Example 825]
- % inhibition of farnesyltransferase at 1 × 10^-7 M (1 × 10^-7 M (Table 3)): 79%

- % inhibition of farnesyltransferase at 1 × 10^-6 M: 40%
SMILES: CSCC[C@H](NC(=O)c1ccc(CNc2ccc(-c3nc4ccccc4s3)cc2)cc1-c1ccccc1)C(=O)O [Example 703]

- % inhibition of farnesyltransferase at 1 × 10^-6 M: 94%
SMILES: CSCC[C@H](NC(=O)c1ccc(CN(CCC2CCCCC2)C(=O)N(C)C)cc1-c1ccccc1C)C(=O)O [Example 610]

- % inhibition of farnesyltransferase at 1 × 10^-7 M (1 × 10^-7 M (Table 3)): 51%
SMILES: CSCC[C@H](NC(=O)c1ccc(CSc2nc(C)cc(C)n2)cc1-c1ccccc1C)C(=O)O [Example 743]

SMILES: CSCC[C@H](NC(=O)c1ccc(COCCc2ccccc2)cc1-c1ccccc1C)C(=O)[O-].[Li+] [Example 587]
- % inhibition of farnesyltransferase at 1 × 10^-6 M: 97%

SMILES: CSCC[C@H](NC(=O)c1ccc(CCc2ccc3ccccc3c2)cc1-c1ccccc1C)C(=O)O [Example 468, lithium salt]
- inhibition at 1 µM: 96%

- % inhibition of farnesyltransferase at 1 × 10^-6 M: 96%
SMILES: CSCC[C@H](NC(=O)c1ccc(COCc2cccs2)cc1-c1ccccc1C)C(=O)[O-].[Li+] [Example 273]

- % inhibition of farnesyltransferase at 1 × 10^-5 M: 67%
SMILES: CSCC[C@H](NC(=O)c1ccc(CN[C@H](CC2CCCCC2)[C@H](O)[C@H](O)CC(C)C)cc1-c1ccccc1)C(=O)O [Example 715]

SMILES: CSCC[C@H](NC(=O)c1ccc(C=Cc2cncs2)cc1-c1ccccc1C)C(=O)O [Example 785, N-[4-(2-(thiazol-5-yl)ethen-1-yl)-2-(2-methylphenyl)benzoyl]methionine lithium salt]
- inhibition at 0.1 µM (read-out: % inhibition of farnesyltransferase at 1 × 10^-7 M, 1 × 10^-7 M (Table 3)): 96%

- % inhibition of farnesyltransferase at 1 × 10^-5 M: 66%
SMILES: CSCC[C@H](NC(=O)c1ccc(CNc2nnc(C)s2)cc1-c1ccccc1)C(=O)O [Example 371]

- % inhibition of farnesyltransferase at 1 × 10^-7 M (1 × 10^-7 M (Table 3)): 89%
SMILES: CSCC[C@H](NC(=O)c1ccc(CSc2ccc(C)cc2C)cc1-c1ccccc1C)C(=O)O [Example 741]

- % inhibition of farnesyltransferase at 1 × 10^-6 M: 97%
SMILES: CSCC[C@H](NC(=O)c1ccc(NC[C@@H]2CSCN2)cc1-c1ccccc1)C(=O)O.Cl [Example 166]

- inhibition at 0.1 µM [1]: 92%
SMILES: CSCC[C@H](NC(=O)c1ccc(CN2CC(F)(F)C[C@H]2COCC2CCCCC2)cc1-c1ccccc1C)C(=O)O [Example 1117, N-[4-(2(S)-cyclohexylmethyloxymethyl-4,4-difluoropyrrolidin-1-ylmethyl)-2-(2-methylphenyl)benzoyl]methionine]

- % inhibition of farnesyltransferase at 1 × 10^-5 M: 58%
SMILES: CSCC[C@H](NC(=O)c1ccc(NC(=O)c2cccc(N(C)C)c2)cc1-c1ccccc1)C(=O)O [Example 752]

- % inhibition of farnesyltransferase at 1 × 10^-5 M: 44%
SMILES: CSCC[C@H](NC(=O)c1ccc(CNCC(C)(C)CN(C)C)cc1-c1ccccc1)C(=O)O [Example 639]

SMILES: CCSCC(CCC1CCCCC1)Cc1ccc(C(=O)N[C@@H](CCSC)C(=O)O)c(-c2ccccc2C)c1 (some centres unmarked) [Example 1300, N-[4-(2-(2-Cyclohexylethyl)-1-ethylthioprop-3-yl)-2-(2-methylphenyl)benzoyl]methionine Lithium Salt]
- inhibition at 0.1 µM [1]: 97%

- % inhibition of farnesyltransferase at 1 × 10^-8 M (1 × 10^-8 M (Table 4)): 79%
SMILES: CSCC[C@H](NC(=O)c1ccc(CN(C(C)=O)C(CC2CCCCC2)CC2CCCCC2)cc1-c1ccccc1C)C(=O)O [Example 909]

- % inhibition of farnesyltransferase at 1 × 10^-5 M: 76%
SMILES: CSCC[C@H](NC(=O)c1ccc(CNc2cccc(O)c2)cc1-c1ccccc1)C(=O)O [Example 676]

- % inhibition of farnesyltransferase at 1 × 10^-7 M (1 × 10^-7 M (Table 3)): 95%
SMILES: CSCC[C@H](NC(=O)c1ccc(CN[C@H](CSC(C)(C)C)CC2CCCCC2)cc1-c1ccccc1C)C(=O)O [Example 622]
